According to PubChem BioAssay AID1918949 (Molecular Pharmacology Branch, DTP, NCI, 2023):

Tested on: K24384-001-R-PDC complex spheroid viability
Assay: Anticancer human tumor K24384-001-R-PDC patient-derived pancreatic adenocarcinoma cell line growth inhibition
Details: for IC50: curve of first compound; for viability, T/C: stronger effect = lower value
From the text: Multicellular complex tumor spheroid response to LSD1 Inhibitor Iadademstat in combination with a variety of drugs and investigational agents in selected tumor cell lines
The current study was undertaken to assess response to LSD1 inhibitors in combination with standard-of-care drugs and investigational agents in solid tumor complex spheroid models as well as in the K-562 leukemia. Complex spheroids include a stromal component modeled by human endothelial cells (HUVEC) and fibroblasts modeled by human mesenchymal stem cells (MSCs). The concentration ranges selected for each drug and investigational agent were based upon clinically achievable concentrations if the clinical Cmax of the agent was known.
Compounds. The drugs and investigational agents used in this study are listed on Table 1. All of the agents used, including staurosporine (NSC755774) and gemcitabine (NSC613327), were obtained from the Developmental Therapeutics Program, NCI. FDA-approved anticancer drugs are available from the NCI at http://dtp.nci.nih.gov/branches/dscb/oncology_drugset_explanation.html. Drugs and investigational agents were >95% pure by proton nuclear magnetic resonance (NMR) and liquid chromatography/mass spectrometry (LC/MS). Stock solutions were prepared at 400x in DMSO, stored at -70 degrees C, and diluted in fresh medium prior to their use. The final concentration of DMSO in cell culture wells never exceeded 0.25% (v/v). The FDA-approved anticancer drug set is available from the Developmental Therapeutics Program at https://dtp.cancer.gov/organization/dscb/obtaining/available_plates.htm. All drugs and investigational agents were tested over a range starting from a high concentration at or near the clinical Cmax and decreasing in half-log increments. If the clinical Cmax for an agent had not been determined, the highest concentration tested was 10 microM.
Cell Lines. The patient-derived cancer cell (PDC) lines: 292921-168-R-J2-PDC, K24384-001-R-PDC, and 521955-158-R2-J5-PDC pancreatic carcinomas, 556581-035-R-J1 ovarian carcinoma, 324938-238-R-J1-PDC, 855422-203-R-J1-PDC and 883617-216-R-J1-PDC urothelial bladder carcinomas, 743489-274-T-PDC renal cell carcinoma, 138582-R-J1 Merkel cell tumor, K60290-347-R-J1 and K57222-313-R-J1-PDC glioblastomas, 653999-131-R-J2-PDC, LG0703-F948-PDC, and 349418-098-R-PDC non-small cell lung carcinomas, 885512-296-R-J2-PDC, 171881-019-R-J1-PDC breast carcinomas and 186277-243-T-J2-PDC and 233499-124-R-J2-PDC colon carcinomas were obtained from the NCI Patient-Derived Models Repository (PDMR, https://pdmr.cancer.gov). The established cell lines NCI/ADR-RES (RRID:CVCL_14520 and OVCAR-5 (RRID:CVCL_1628) ovarian carcinomas, 786-O (RRID:CVCL_1051) and A498 (RRID:CVCL_A498) renal cell carcinoma, NCI-H211 (ATCC, cat. CRL-5824; RRID:CVCL_1529), NCI-H196 (ATCC, cat. CRL-5823, RRID:CVCL_1509), SW 1271 (ATCC, cat. CRL-2177, RRID:CVCL_1716) and NCI-H1876 (ATCC, cat. CRL-5902, RRID:CVCL_1503) small cell lung carcinomas, MDA-MB-231 (RRID:CVCL_0062) and MDA-MB-468 (RRID:CVCL_0419)breast carcinomas (10-12). Pooled donor human umbilical vein endothelial cells (HUVEC, Lonza, cat. CC-2519) and human mesenchymal stem cells (hMSC, Lonza, cat. PT-2501) were purchased from Lonza (Walkersville, MD).
Cell Culture. All cells were maintained in an incubator at 37 degrees C and 5% CO2 with 95% humidity. The PDC lines were cultured according to standard operating procedures established by the NCI PDMR (https://pdmr.cancer.gov). Briefly all PDCs were thawed and cultured in Matrigel-coated flasks prepared with a working solution of 1X Ham's F-12 nutrient mix, without supplementation (Invitrogen, Waltham, MA, cat. 11765054), 100 U/mL penicillin-streptomycin (Invitrogen, cat. 15140122), and 2.5% Matrigel (Corning Inc., Corning, NY, cat. 354248) for the first three passages. […]

[1] = second compound 0.1 µM, first compound 0.00949 µM
[2] = second compound 0.1 µM, first compound 0.03 µM
[3] = second compound 0.1 µM, first compound 0.0949 µM
[4] = second compound 0.1 µM, first compound 0.3 µM
[5] = second compound 0.316 µM, first compound 0.00949 µM
[6] = second compound 0.316 µM, first compound 0.03 µM
[7] = second compound 0.316 µM, first compound 0.0949 µM
[8] = second compound 0.316 µM, first compound 0.3 µM
[9] = second compound 1 µM, first compound 0.00949 µM
[10] = second compound 1 µM, first compound 0.03 µM
[11] = second compound 1 µM, first compound 0.0949 µM
[12] = second compound 1 µM, first compound 0.3 µM
[13] = second compound 3.16 µM, first compound 0.00949 µM
[14] = second compound 3.16 µM, first compound 0.03 µM
[15] = second compound 3.16 µM, first compound 0.0949 µM
[16] = second compound 3.16 µM, first compound 0.3 µM
[17] = second compound 10 µM, first compound 0.00949 µM
[18] = second compound 10 µM, first compound 0.03 µM
[19] = second compound 10 µM, first compound 0.0949 µM
[20] = second compound 10 µM, first compound 0.3 µM
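Also: spheroids exposed to agents for seven days before luminescence viability reading.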
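For viability, T/C in this document: 100% = DMSO vehicle control viability.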

Work on `NS(=O)(=O)OCC1CC(n2ccc3c(NC4CCc5ccccc54)ncnc32)CC1O` (stereo not given) + NC1CC1c1ccc(-c2cccc(O)c2)cc1 yielded an IC50 (second compound 0.1 µM) of 439 nM, an IC50 (second compound 0.316 µM) of 570 nM and an IC50 (second compound 1 µM) of 479 nM. It also gave an IC50 (second compound 3.16 µM) of 420 nM, an IC50 (second compound 10 µM) of 512 nM and a viability, T/C [1] of 124%. The viability, T/C [2] was 155%, the viability, T/C [3] was 154% and the viability, T/C [4] was 58.9%. It also gave a viability, T/C (second compound 0.1 µM, first compound 0.949 µM) of 36.9%, a viability, T/C (second compound 0.1 µM, first compound 3 µM) of 27% and a viability, T/C [5] of 128%. The viability, T/C [6] was 156%, the viability, T/C [7] was 135% and the viability, T/C [8] was 71.1%. The viability, T/C (second compound 0.316 µM, first compound 0.949 µM) was 37.5%, the viability, T/C (second compound 0.316 µM, first compound 3 µM) was 25.4% and the viability, T/C [9] was 114%. It also gave a viability, T/C [10] of 155%, a viability, T/C [11] of 146% and a viability, T/C [12] of 62.5%. It also gave a viability, T/C (second compound 1 µM, first compound 0.949 µM) of 36.6%, a viability, T/C (second compound 1 µM, first compound 3 µM) of 26.9% and a viability, T/C [13] of 110%. It also gave a viability, T/C [14] of 148%, a viability, T/C [15] of 138% and a viability, T/C [16] of 55.4%. It also gave a viability, T/C (second compound 3.16 µM, first compound 0.949 µM) of 43.1%, a viability, T/C (second compound 3.16 µM, first compound 3 µM) of 30.8% and a viability, T/C [17] of 155%. The viability, T/C [18] was 151%, the viability, T/C [19] was 114% and the viability, T/C [20] was 61.1%. For the same molecule, the viability, T/C (second compound 10 µM, first compound 0.949 µM) was 40.8% and the viability, T/C (second compound 10 µM, first compound 3 µM) was 23%.

Work on `CC1COCCN1c1cc(C2(S(C)(=N)=O)CC2)nc(-c2ccnc3[nH]ccc23)n1` (stereo not given) + NC1CCC(NC2CC2c2ccccc2)CC1 yielded an IC50 (second compound 0.1 µM) of 2450 nM, an IC50 (second compound 0.316 µM) of 1630 nM and an IC50 (second compound 1 µM) of 2320 nM. For the same molecule, the IC50 (second compound 3.16 µM) was 1830 nM, the IC50 (second compound 10 µM) was 1710 nM and the viability, T/C (second compound 0.1 µM, first compound 0.0316 µM) was 82.9%. The viability, T/C (second compound 0.1 µM, first compound 0.1 µM) was 79.5%, the viability, T/C (second compound 0.1 µM, first compound 0.316 µM) was 91.1% and the viability, T/C (second compound 0.1 µM, first compound 1 µM) was 71.5%. For the same molecule, the viability, T/C (second compound 0.1 µM, first compound 3.16 µM) was 43.2%, the viability, T/C (second compound 0.1 µM, first compound 10 µM) was 44.5% and the viability, T/C (second compound 0.316 µM, first compound 0.0316 µM) was 95.2%. It also gave a viability, T/C (second compound 0.316 µM, first compound 0.1 µM) of 90.1%, a viability, T/C (second compound 0.316 µM, first compound 0.316 µM) of 107% and a viability, T/C (second compound 0.316 µM, first compound 1 µM) of 57.5%. The viability, T/C (second compound 0.316 µM, first compound 3.16 µM) was 45.5%, the viability, T/C (second compound 0.316 µM, first compound 10 µM) was 34.3% and the viability, T/C (second compound 1 µM, first compound 0.0316 µM) was 84.4%. For the same molecule, the viability, T/C (second compound 1 µM, first compound 0.1 µM) was 88%, the viability, T/C (second compound 1 µM, first compound 0.316 µM) was 84.3% and the viability, T/C (second compound 1 µM, first compound 1 µM) was 67%. For the same molecule, the viability, T/C (second compound 1 µM, first compound 3.16 µM) was 44%, the viability, T/C (second compound 1 µM, first compound 10 µM) was 38.9% and the viability, T/C (second compound 3.16 µM, first compound 0.0316 µM) was 80.6%. For the same molecule, the viability, T/C (second compound 3.16 µM, first compound 0.1 µM) was 97.6%, the viability, T/C (second compound 3.16 µM, first compound 0.316 µM) was 82.9% and the viability, T/C (second compound 3.16 µM, first compound 1 µM) was 60.4%. For the same molecule, the viability, T/C (second compound 3.16 µM, first compound 3.16 µM) was 41.8%, the viability, T/C (second compound 3.16 µM, first compound 10 µM) was 34.4% and the viability, T/C (second compound 10 µM, first compound 0.0316 µM) was 79.6%. The viability, T/C (second compound 10 µM, first compound 0.1 µM) was 74%, the viability, T/C (second compound 10 µM, first compound 0.316 µM) was 76.8% and the viability, T/C (second compound 10 µM, first compound 1 µM) was 60.4%. For the same molecule, the viability, T/C (second compound 10 µM, first compound 3.16 µM) was 36.9% and the viability, T/C (second compound 10 µM, first compound 10 µM) was 39%.

Molecule `Nc1ccn(C2OC(CO)C(O)C2(F)F)c(=O)n1` (stereo not given) + NC1CCC(NC2CC2c2ccccc2)CC1 has an IC50 (second compound 0.1 µM) of 57.9 nM, an IC50 (second compound 0.316 µM) of 49.6 nM and an IC50 (second compound 1 µM) of 44.5 nM. For the same molecule, the IC50 (second compound 3.16 µM) was 87.6 nM, the IC50 (second compound 10 µM) was 53.2 nM and the viability, T/C (second compound 0.1 µM, first compound 0.000949 µM) was 77.4%. For the same molecule, the viability, T/C (second compound 0.1 µM, first compound 0.003 µM) was 68.3%, the viability, T/C [1] was 67.8% and the viability, T/C [2] was 53.5%. It also gave a viability, T/C [3] of 46.8%, a viability, T/C [4] of 33% and a viability, T/C (second compound 0.316 µM, first compound 0.000949 µM) of 73.9%. It also gave a viability, T/C (second compound 0.316 µM, first compound 0.003 µM) of 72%, a viability, T/C [5] of 67.3% and a viability, T/C [6] of 52.9%. The viability, T/C [7] was 46%, the viability, T/C [8] was 39.5% and the viability, T/C (second compound 1 µM, first compound 0.000949 µM) was 85.9%. It also gave a viability, T/C (second compound 1 µM, first compound 0.003 µM) of 68.1%, a viability, T/C [9] of 62.4% and a viability, T/C [10] of 50.4%. For the same molecule, the viability, T/C [11] was 48%, the viability, T/C [12] was 41.9% and the viability, T/C (second compound 3.16 µM, first compound 0.000949 µM) was 84.3%. For the same molecule, the viability, T/C (second compound 3.16 µM, first compound 0.003 µM) was 77.5%, the viability, T/C [13] was 70.4% and the viability, T/C [14] was 59.9%. It also gave a viability, T/C [15] of 48.7%, a viability, T/C [16] of 41.3% and a viability, T/C (second compound 10 µM, first compound 0.000949 µM) of 66.7%. It also gave a viability, T/C (second compound 10 µM, first compound 0.003 µM) of 68.5%, a viability, T/C [17] of 69.3% and a viability, T/C [18] of 54.6%. The viability, T/C [19] was 45.8% and the viability, T/C [20] was 39.2%.
